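96-well plates; 48 h exposure; 5 concentrations. Endpoints by linear interpolation between flanking doses. Not reached: highest tested concentration assigned. GI50: concentration for 50% inhibition of growth.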 Active and inactive are the calls of the source. No stated cut-off is given here; in the data, active = GI50 up to about 1.1 µM and inactive = higher. *1 amine or outer side, *2 acyl side, *3 side chain or, on linkers, in order; H or OH if unused. Where a SMILES comes first, the peptide text is derived from it. Bridges are numbered along the chain shown (N, C = ends). Roman numbers before positions name the chains, in order. [ ]: non-standard residue; d: D form. Actinocin(9to1) = Cc1c2oc3c(C)ccc(C(=O)[*:1])c3nc-2c(C(=O)[*:2])c(N)c1=O; NMeV = CN[CH](C(=O)O)C(C)C; Sar = CNCC(=O)O
Tests used:
Assay in all cases: inhibition of tumour cell growth, NCI panel, 48 h
[1] = tested on: HCC 2998
[2] = tested on: HOP-62
[3] = tested on: KM12
[4] = tested on: NCI-H23
[5] = tested on: NCI-H226
[6] = tested on: ACHN
[7] = tested on: OVCAR-5
[8] = tested on: SNB-19
[9] = tested on: LOX IMVI
[10] = tested on: UACC-257
[11] = tested on: HCT-15
[12] = tested on: MOLT-4
[13] = tested on: SR
[14] = tested on: Hs-578T
[15] = tested on: SK-MEL-2
[16] = tested on: SK-OV-3
[17] = tested on: IGROV-1
[18] = tested on: MCF7
[19] = tested on: SF-539
[20] = tested on: EKVX

Row | Compound | GI50 [1] | GI50 [2] | GI50 [3] | GI50 [4] | GI50 [5] | GI50 [6] | GI50 [7] | GI50 [8] | GI50 [9] | GI50 [10] | GI50 [11] [µM] | GI50 [12] | GI50 [13] | GI50 [14] | GI50 [15] | GI50 [16] | GI50 [17] | GI50 [18] | GI50 [19] | GI50 [20]
1 | O=c1ssc(Cl)c1Cl | > 10 µM (inactive) | > 10 µM (inactive) | > 10 µM (inactive) | > 10 µM (inactive) | > 10 µM (inactive) | > 7.26 µM (inactive) | > 10 µM (inactive) | > 10 µM (inactive) | > 10 µM (inactive) | > 7.19 µM (inactive) | > 10 | 2.39 µM (inactive) | > 10 µM (inactive) | > 10 µM (inactive) | > 10 µM (inactive) | > 10 µM (inactive) | > 10 µM (inactive) | > 7.78 µM (inactive) | > 10 µM (inactive) | > 10 µM (inactive)
2 | O=c1[nH]nc(Cc2ccc(Cl)cc2)n1/N=C/c1ccc([N+](=O)[O-])o1 | 2.13 µM (inactive) | 2.77 µM (inactive) | 2.03 µM (inactive) | 3.34 µM (inactive) | 9.18 µM (inactive) | 2.12 µM (inactive) | 6.85 µM (inactive) | 3.98 µM (inactive) | 1.2 µM (inactive) | 2.77 µM (inactive) | 2.21 | 1.55 µM (inactive) | 2.17 µM (inactive) | 2.25 µM (inactive) | 3.38 µM (inactive) | 5.22 µM (inactive) | 2.05 µM (inactive) | 1.75 µM (inactive) | 2.21 µM (inactive) | 4.63 µM (inactive)
3 | O=C1c2ccccc2-c2c1c1ccccc1c(=O)n2-c1cccnc1 | > 100 µM (inactive) | 12.1 µM (inactive) | > 100 µM (inactive) | 37.8 µM (inactive) | 61.5 µM (inactive) | 23.2 µM (inactive) | > 100 µM (inactive) | 24.6 µM (inactive) | 32.1 µM (inactive) | > 100 µM (inactive) | 24.9 | 3.78 µM (inactive) | 5.53 µM (inactive) | 37 µM (inactive) | > 100 µM (inactive) | 42.6 µM (inactive) | 34.2 µM (inactive) | 22.5 µM (inactive) | 21.3 µM (inactive) | > 44.2 µM (inactive)
4 | O=c1[nH]c(Br)nc2[nH]nnc12 | > 100 µM (inactive) | 17.7 µM (inactive) | > 100 µM (inactive) | > 100 µM (inactive) | > 100 µM (inactive) | > 100 µM (inactive) | > 100 µM (inactive) | > 100 µM (inactive) | 6.89 µM (inactive) | 55.6 µM (inactive) | > 100 | 2.73 µM (inactive) | 42.2 µM (inactive) | 38.3 µM (inactive) | 8.24 µM (inactive) | 39.3 µM (inactive) | > 100 µM (inactive) | 74.1 µM (inactive) | 16.7 µM (inactive) | 70.1 µM (inactive)
5 | Clc1ccc(Cc2nc3ccccc3o2)cc1 | 54 µM (inactive) | > 100 µM (inactive) | 69.8 µM (inactive) | 56 µM (inactive) | 40.4 µM (inactive) | > 100 µM (inactive) | > 100 µM (inactive) | > 100 µM (inactive) | > 100 µM (inactive) | 52.1 µM (inactive) | 39.3 | 38.5 µM (inactive) | 50.5 µM (inactive) | > 100 µM (inactive) | > 100 µM (inactive) | > 100 µM (inactive) | > 100 µM (inactive) | 51.4 µM (inactive) | > 100 µM (inactive) | 40.1 µM (inactive)
6 | Cc1c2oc3c(C)ccc(C(=O)NC4C(=O)NC(C(C)C)C(=O)N5CCCC5C(=O)N(C)CC(=O)N(C)C(C(C)C)C(=O)OC4C)c3nc-2c(C(=O)NC2C(=O)NC(C(C)C)C(=O)N3CCCC3C(=O)N(C)CC(=O)N(C)C(C(C)C)C(=O)OC2C)c(N)c1=O (stereo not given) (I: TVP[Sar][NMeV] / II: TVP[Sar][NMeV]; ester I:1-I:C, II:1-II:C; linker I:N-II:N via Actinocin(9to1); configuration not given here) | 0.00684 µM (active) | 0.000486 µM (active) | < 0.0001 µM (active) | 0.000556 µM (active) | 0.000891 µM (active) | 0.000213 µM (active) | 0.00181 µM (active) | 0.000112 µM (active) | < 0.0001 µM (active) | 0.000957 µM (active) | 0.0123 | < 0.0001 µM (active) | < 0.0001 µM (active) | 0.000143 µM (active) | < 0.0001 µM (active) | 0.0017 µM (active) | 0.00011 µM (active) | < 0.0001 µM (active) | < 0.0001 µM (active) | 0.00416 µM (active)
7 | CC(C)=CCC[C@@H](C)[C@H]1CC[C@@]2(C)[C@@H]3CC[C@H]4C(C)(C)[C@@H](O)CC[C@@]45C[C@@]35CC[C@]12C [CYCLOARTENOL] | > 31.6 µM (inactive) | 24.9 µM (inactive) | > 56.8 µM (inactive) | 22.7 µM (inactive) | 26.5 µM (inactive) | 31.5 µM (inactive) | > 54.2 µM (inactive) | 58.7 µM (inactive) | 21 µM (inactive) | > 100 µM (inactive) | > 100 | > 51.9 µM (inactive) | 24.3 µM (inactive) | 33.4 µM (inactive) | 27.2 µM (inactive) | 53.5 µM (inactive) | 16.1 µM (inactive) | 31.8 µM (inactive) | > 49.7 µM (inactive) | 37.2 µM (inactive)
8 | O=C1c2ccccc2-n2c1nc1ccccc1c2=O [TRYPTANTHRIN] | 29.4 µM (inactive) | 12.1 µM (inactive) | 6.62 µM (inactive) | 9.73 µM (inactive) | 30.9 µM (inactive) | 2 µM (inactive) | 16 µM (inactive) | 25 µM (inactive) | 4.44 µM (inactive) | 3.02 µM (inactive) | 3.6 | 7.94 µM (inactive) | 8.47 µM (inactive) | 17.1 µM (inactive) | 10.1 µM (inactive) | > 100 µM (inactive) | 23 µM (inactive) | 7.19 µM (inactive) | 20.7 µM (inactive) | 13.4 µM (inactive)

— ChEMBL document CHEMBL1201862, “PubChem BioAssay data set” (2004)
